The results in this text go back to US20130029970A1 (priority 2009, published 2013).

One experiment addresses T1, human CB2 (hCB2) (Homo sapiens, UniProt P34972).
T1 construct: (cDNA clone) CNR0200000
As to the kind of experiment: 35S GTPγS binding assay, hCB2 agonist. In kind it is biochemical. To be noted: GTPγS agonist, HEK-293 membranes; read-out: hCB2 EC50 (GTPyS ag). The method, boiled down:
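Membranes (5 μg) from cells transfected with hCB2 cDNA in pcDNA3.1+ incubated with SPA beads, 0.1 nM [35S]GTPγS and 20 uM GDP in 50 mM HEPES pH 7.4, 100 mM NaCl, 5 mM MgCl2, 0.001% saponin, ± test compound. Incubation 90 min at room temperature; bound label read by scintillation counting.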
(In general: GTPγS is a poorly hydrolysed GTP analogue; its binding reports G protein activation.)

In a further experiment the target is T2, human CB2 receptors (Homo sapiens, UniProt P34972).
T2 construct: (cDNA clone) CNR0200000
The experiment is described as follows: cAMP assay in HEK-293 cells, hCB2 agonist. Type of experiment: cell-based. To be noted: inhibition of forskolin-stimulated cAMP, HEK-293 cells; for EC50: read-out: hCB2 EC50 (cAMP ag). The method, boiled down: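 HEK-293 cells stably expressing human CB2, suspended at 1,500,000 cells/mL in HBSS with 10 mM HEPES and 0.1% fatty-acid-free BSA, exposed to test compound plus forskolin (90 uM in the 3× compound solution) for 30 min at 37° C.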
(In general: cAMP levels reflect the balance of adenylyl cyclase and phosphodiesterase activity.)

For experiment [1], the target named is T3, recombinant human cannabinoid receptor CB1 (Homo sapiens, UniProt P21554).
T3 construct: (cDNA clone) CNR01L000
As to the kind of experiment: Cannabinoid receptor radioligand binding assay, [3H]-CP 55,940 displacement, hCB1. The method, boiled down:
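Membranes from HEK-293 cells stably expressing human CB1, 2-10 μg protein, incubated 90 min at room temperature with 0.5 nM [3H]-CP 55,940 in Tris-HCl pH 7.5, MgCl2, EDTA and 0.1% fatty-acid-free BSA. Bound radioactivity counted after rapid filtration; nonspecific binding defined with 1 μM unlabeled CP 55,940.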

T3 sequence (P21554 whole entry): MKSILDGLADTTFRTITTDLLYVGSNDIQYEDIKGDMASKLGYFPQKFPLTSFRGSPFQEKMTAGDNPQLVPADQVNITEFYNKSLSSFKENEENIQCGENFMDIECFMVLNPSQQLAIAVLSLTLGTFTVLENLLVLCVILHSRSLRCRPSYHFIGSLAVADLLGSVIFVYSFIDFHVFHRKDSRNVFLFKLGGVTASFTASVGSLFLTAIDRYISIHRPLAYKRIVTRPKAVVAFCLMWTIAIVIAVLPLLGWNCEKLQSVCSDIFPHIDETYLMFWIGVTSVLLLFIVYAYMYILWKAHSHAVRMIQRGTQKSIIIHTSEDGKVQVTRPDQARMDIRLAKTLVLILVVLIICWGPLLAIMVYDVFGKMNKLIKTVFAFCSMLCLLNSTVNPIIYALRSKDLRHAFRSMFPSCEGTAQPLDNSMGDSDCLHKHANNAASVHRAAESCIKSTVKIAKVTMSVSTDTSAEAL
T2 sequence (P34972 whole entry): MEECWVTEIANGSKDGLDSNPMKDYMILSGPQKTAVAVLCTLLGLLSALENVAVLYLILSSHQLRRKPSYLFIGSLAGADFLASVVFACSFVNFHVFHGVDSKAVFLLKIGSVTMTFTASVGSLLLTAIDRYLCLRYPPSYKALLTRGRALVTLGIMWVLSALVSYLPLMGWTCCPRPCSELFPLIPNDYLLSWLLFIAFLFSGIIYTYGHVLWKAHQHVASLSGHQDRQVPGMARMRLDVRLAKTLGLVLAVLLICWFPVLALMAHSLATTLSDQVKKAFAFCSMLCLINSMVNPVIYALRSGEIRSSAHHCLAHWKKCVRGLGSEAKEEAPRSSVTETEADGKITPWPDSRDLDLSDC
T1 sequence (P34972 whole entry): as above

The EC50 is the concentration giving half of the maximal effect. Usually IC50 stands for the point on the concentration scale where inhibition reaches its midpoint. Take `COc1ccc(C(=O)c2cc3cc(C)n(CCN4CCOCC4)c3s2)c(C(F)(F)F)c1` [Compound 119, (4-Methoxy-2-(trifluoromethyl)phenyl)(5-methyl-6-(2-morpholinoethyl)-6H-thieno[2,3-b]pyrrol-2-yl)methanone]: the concentration giving a half-maximal response (EC50) at human CB2 (hCB2) and at human CB2 receptors was less than 100 nM in each case. Also, in experiment [1], the IC50 was in the range of 1 to 10 µM.

On to `COc1ccc(C(O)(c2cc3cc(C)n(CCN4CCOCC4)c3s2)C(F)(F)F)cc1` (centres unmarked) [Compound 138, 2,2,2-trifluoro-1-(4-methoxyphenyl)-1-(5-methyl-6-(2-morpholinoethyl)-6H-thieno[2,3-b]pyrrol-2-yl)ethanol], for which the EC50 at human CB2 (hCB2) and at human CB2 receptors was less than 100 nM throughout. The 50% inhibitory concentration (IC50) in experiment [1] is 1 to 10 µM.

Regarding `Cc1ccc(C(=N)c2cc3cc(C)n(CCN4CCOCC4)c3s2)cc1` [Compound 121, (5-methyl-6-(2-morpholinoethyl)-6H-thieno[2,3-b]pyrrol-2-yl)(p-tolyl)methanimine], the EC50 at human CB2 (hCB2) and at human CB2 receptors was less than 100 nM each time. The IC50 in experiment [1] was 1 to 10 µM.

Consider `COc1ccc(C(=O)c2cc3cc(C)n(CCN4CCOCC4)c3s2)cn1` [Compound 58, (6-Methoxypyridin-3-yl)(5-methyl-6-(2-morpholinoethyl)-6H-thieno[2,3-b]pyrrol-2-yl)methanone], for which the EC50 at human CB2 (hCB2) and on human CB2 receptors was less than 100 nM each time. Besides, in experiment [1], the IC50 is more than 10 µM.

In the case of `Cc1cc2cc(C(=O)c3cccc(Cl)c3Cl)sc2n1S(=O)(=O)N1CCOCC1` [Compound 45, (2,3-Dichlorophenyl)(5-methyl-6-(morpholinosulfonyl)-6H-thieno[2,3-b]pyrrol-2-yl)methanone], the concentration for a half-maximal effect (EC50) at human CB2 (hCB2) and on human CB2 receptors was less than 100 nM throughout. Moreover, the concentration for half-maximal inhibition (IC50) in experiment [1] was less than 0.1 µM.

`Cc1cc2cc(C(=O)c3ccc(C(F)(F)F)cc3)sc2n1CCN1CCOCC1` [Compound 60, (5-Methyl-6-(2-morpholinoethyl)-6H-thieno[2,3-b]pyrrol-2-yl)(4-(trifluoromethyl)phenyl)methanone]: the concentration giving a half-maximal response (EC50) on human CB2 (hCB2) was 1000 to 10000 nM; on human CB2 receptors, less than 100 nM. Moreover, the 50% inhibitory concentration (IC50) in experiment [1] was more than 10 µM.

Take `COc1ccc(C(=O)c2cc3cc(C)n(S(=O)(=O)CCN4CCOCC4)c3s2)cc1` [Compound 139, (4-methoxyphenyl)(5-methyl-6-(2-morpholinoethylsulfonyl)-6H-thieno[2,3-b]pyrrol-2-yl)methanone]: the EC50 at human CB2 (hCB2) and on human CB2 receptors was less than 100 nM each time. For the same compound, the IC50 in experiment [1] is 0.1 to 1 µM.

Consider `COc1ccc(C(=O)c2cc3cc(C)n(Cc4ccccc4)c3s2)cc1` [Compound 84, (6-Benzyl-5-methyl-6H-thieno[2,3-b]pyrrol-2-yl)(4-methoxyphenyl)methanone], for which the EC50 is 100 to 1000 nM at human CB2 (hCB2) and less than 100 nM on human CB2 receptors. In experiment [1], the IC50 fell in the range of 1 to 10 µM.

Regarding `COc1ccc(C(=O)c2cc3cc(C)n(CCCCl)c3s2)c(Cl)c1` [Compound 85, (2-Chloro-4-methoxyphenyl)(6-(3-chloropropyl)-5-methyl-6H-thieno[2,3-b]pyrrol-2-yl)methanone], the EC50 on human CB2 (hCB2) and at human CB2 receptors was less than 100 nM each time. Further, the IC50 in experiment [1] lay in the range of 1 to 10 µM.

As for `Cc1cc2cc(C(=O)c3cccc(Cl)c3)sc2n1CCN1CCOCC1` [Compound 4, (3-Chlorophenyl)(5-methyl-6-(2-morpholinoethyl)-6H-thieno[2,3-b]pyrrol-2-yl)methanone], the concentration for a half-maximal effect (EC50) on human CB2 (hCB2) and at human CB2 receptors was less than 100 nM in each case. Also, in experiment [1], the half-inhibitory concentration (IC50) was in the range of 1 to 10 µM.

For `Cc1cc2cc(C(=O)c3cccc(Cl)c3Cl)sc2n1CCN1CCN(C)CC1` [Compound 33, (2,3-Dichlorophenyl)(5-methyl-6-(2-(4-methylpiperazin-1-yl)ethyl)-6H-thieno[2,3-b]pyrrol-2-yl)methanone], the “hCB2 EC50 (cAMP ag, nM)” value on human CB2 receptors is on record as “NS (NS means “Not Significant,” which means less than 30% agonist activity when compared to the positive control.)”. Also, the half-inhibitory concentration (IC50) in experiment [1] was more than 10 µM.
